# Key:
# TMEM [1] = experiment: Intravital imaging of TMEM-dependent vascular permeability (bursting); type: in vivo, mouse
# Text: Paclitaxel Induces TMEM-Dependent Vascular Permeability in Breast Tumors—Given that chemotherapy treatment may affect blood vessel dynamics by inducing angiogenesis (9, 11-13, 35-37), intravital imaging (IVI) (FIG. 2A) was used to investigate whether neoadjuvant paclitaxel induces TMEM-dependent (localized) or TMEM-independent (more universal) blood vessel leakage. […] As also reported previously (1), we never observed any bursting incidents without juxtaposition to a clearly defined TMEM site. Bursting was documented by the accumulation of Dextran-TMR signal over time around an active TMEM site, and no such accumulation was observed away from TMEM (FIGS. 2B-C). The entire time-lapse of these was recorded in videos, respectively. The intensity values from all TMEM-mediated bursting incidents observed in paclitaxel-treated mice were averaged and plotted over the entire time of bursting activity (FIG. 2D), which confirmed the transient nature of paclitaxel-induced TMEM-dependent vascular permeability.
# Drug Administration. The following drugs were administered in mice: Paclitaxel was given at 10 mg/Kg i.v every 5 days for 2 weeks; Doxorubicin was given at 5 mg/Kg i.v. every 5 days for 2 weeks; Cyclophosphamide was given at 120 mg/Kg i.p. only once; Rebastinib was given at 10 mg/Kg per os, every 3-4 days for 4 weeks.
# Intravital Imaging. Intravital imaging was performed using a custom-built two-laser multiphoton microscope, as previously described (57). Mice were anesthetized using 0.75-2.5% isofluorane, depilated. A skin flap procedure, previously developed (58), was performed by exposing the 4th or 5th mammary fat pad. Given the early stage of carcinoma and small tumor size, this necessitated the development of a custom fixturing technique where the exposed tissue was stabilized by affixing the edge of a 10-mm window fitted with an 8-mm clear aperture respectively with cyanoacrylate. The mouse was then placed on a fixturing plate, fitted to the respective window, on the microscope xy stage and imaging was performed in the center of the window away from the glue. The animal was placed in a heated chamber, AirTherm ATX forced air heater (WPI Inc.), maintained at physiologic temperature during the course of imaging, and supplemented with 50-100 uL of PBS per hour via the tail vein catheter. As previously described (1), three milligrams of 155-kDa TMR-dextran (Sigma) were administered via the catheter to visualize the vasculature. All images were reconstructed and analyzed in ImageJ (59), as described in Supplementary Methods.
# TMEM [2] = experiment: Extravascular Dextran-TMR in fixed tumor sections (multichannel IF); type: in vivo, mouse
# Protocol: In a second independent validation experiment, a group of vehicle- or paclitaxel-treated mice received an i.v injection of Dextran-TMR for 1 hour and then sacrificed and evaluated for vascular permeability in fixed tumor sections (FIG. 2A). Multichannel IF staining included endomucin as a blood vessel exclusion mask and a specific anti-TMR antibody for assessing dextran leakage. A corresponding TMEM IHC staining section was co-aligned to evaluate the presence/absence of TMEM in each vascular profile that presented with vascular leakage. […] For quantification purposes, ˜20-30 vascular profiles were selected for each mouse, based on tissue size, degree of vascularization and quality of endomucin staining. […]
# Paclitaxel Increases Metastatic Dissemination of Breast Tumors—To assess if paclitaxel treatment promotes tumor cell dissemination and metastatic incidence, we first quantified and compared incidence and frequency of bursting in mice treated with vehicle or paclitaxel, using IVI (FIGS. 3A-C). […] The same conclusions were reached when frequency of bursting was normalized to the number of TMEM sites, as measured in each field. […] In addition to IVI, extravascular dextran area was quantified and compared as % normalized to the blood vessel area in fixed tumors of mice treated with either vehicle or paclitaxel, using multichannel IF. […]
structure (smiles),measurement,setting,value
CC(=O)O[C@H]1C(=O)[C@@]2(C)[C@H]([C@H](OC(=O)c3ccccc3)[C@]3(O)C[C@H](OC(=O)[C@H](O)[C@@H](NC(=O)c4ccccc4)c4ccccc4)C(C)=C1C3(C)C)[C@]1(OC(C)=O)CO[C@@H]1C[C@@H]2O [paclitaxel],generalized blood vessel leakage of 155-KDa dextran into the extravascular space,"TMEM [1]; intravital imaging, paclitaxel-treated mice",did not demonstrate generalized blood vessel leakage
same,frequency of bursting,TMEM [1]; vs vehicle control,increased
same,incidence of bursting (at least 1 bursting event in a ~4.5-hour imaging session),TMEM [1]; vs vehicle control,increased
same,vascular profiles with extravascular dextran co-localized with at least 1 TMEM,"TMEM [2]; fixed tumor sections, Dextran-TMR i.v. for 1 hour",96-98%
same,"extravascular dextran area normalized to blood vessel area, fold vs vehicle-treated","TMEM [2]; fixed tumors, p<0.05",3 fold
